Results on three compounds are retold here after ChEMBL document CHEMBL4257454, “Study on the interaction between the 1,4,5,8-naphthalene diimide-spermine conjugate (NDIS) and DNA using a spectroscopic approach and molecular docking” (Medchemcomm, 2017).

For assay [1], the system named is Clupeidae. Put plainly: Binding affinity to herring sperm DNA assessed as test compound fluorescence quenching by fluorescence spectroscopic method relative to control.
For assay [2], the system named is Clupeidae. Put plainly: Inhibition of ethidium bromide binding to herring sperm DNA assessed as fluorescence quenching of DNA-ethidium bromide complex up to 120 uM after 30 mins by fluorescence spectroscopic assay relative to control. Details: scale not given: the % may be the effect or the level left.
Assay [3] concerns Clupeidae. Put plainly: Binding affinity to herring sperm DNA assessed as hypochromism at 80 uM after 30 mins by UV-visible spectrophotometric method.
The subject of assay [4] is Clupeidae. Put plainly: Binding affinity to herring sperm DNA after 30 mins by UV-visible spectrophotometric method.
Assay [5] has as its system Clupeidae. Put plainly: Binding affinity to herring sperm DNA assessed as Stern-Volmer quenching constant at 303 K by fluorescence spectroscopic method.
Assay [6] concerns Clupeidae. Put plainly: Binding affinity to herring sperm DNA assessed as red shift at 80 uM after 30 mins by UV-visible spectrophotometric method.
The subject of assay [7] is Clupeidae. Put plainly: Inhibition of ethidium bromide binding to herring sperm DNA assessed as Stern-Volmer quenching constant at 303 K after 30 mins by fluorescence spectroscopic assay.
Assay [8] relates to Clupeidae. Kind of assay: Inhibition of ethidium bromide binding to herring sperm DNA at 303 K after 30 mins by fluorescence spectroscopic assay.
The subject of assay [9] is Clupeidae. Kind of assay: Inhibition of ethidium bromide binding to herring sperm DNA assessed as Stern-Volmer quenching constant at 310 K after 30 mins by fluorescence spectroscopic assay.
In assay [10] the test system is Clupeidae. Put plainly: Binding affinity to herring sperm DNA at 298 K by fluorescence spectroscopic method.
Assay [11] deals with Clupeidae. Kind of assay: Inhibition of ethidium bromide binding to herring sperm DNA assessed as quenching constant at 310 K after 30 mins by fluorescence spectroscopic assay.
The subject of assay [12] is Clupeidae. Kind of assay: Binding affinity to herring sperm DNA groove assessed as hyperchromic effect at DNA to compound molar ratio of >5.5 after 30 mins by UV-visible spectrophotometric method.
Assay [13] has as its system Clupeidae. Put plainly: Inhibition of ethidium bromide binding to herring sperm DNA at 298 K after 30 mins by fluorescence spectroscopic assay.
Assay [14] deals with Clupeidae. Kind of assay: Binding affinity to herring sperm DNA assessed as blue shift at 16 to 48 uM up to 30 mins by circular dichroism method. On the technique in general: CD spectra are sensitive to the conformation of chiral molecules.
Assay [15] concerns Clupeidae. Put plainly: Inhibition of ethidium bromide binding to herring sperm DNA assessed as quenching constant at 298 K after 30 mins by fluorescence spectroscopic assay.
Assay [16] concerns Clupeidae. Kind of assay: Binding affinity to herring sperm DNA groove assessed as fluorescence quenching at DNA to compound molar ratio of >5.5 by fluorescence spectroscopic method.
Assay [17] concerns Clupeidae. Put plainly: Binding affinity to herring sperm DNA at 310 K by fluorescence spectroscopic method.
In assay [18] the test system is Clupeidae. Put plainly: Binding affinity to herring sperm DNA assessed as iodide quenching at 20 uM after 30 mins by fluorescence method (reference value: 27 L/mol).
Assay [19] relates to Clupeidae. Kind of assay: Binding affinity to herring sperm DNA assessed as quenching constant at 298 K by fluorescence spectroscopic method.
Assay [20] has as its system Clupeidae. Kind of assay: Inhibition of ethidium bromide binding to herring sperm DNA assessed as Stern-Volmer quenching constant at 298 K after 30 mins by fluorescence spectroscopic assay.
In assay [21] the test system is Clupeidae. Put plainly: Inhibition of ethidium bromide binding to herring sperm DNA assessed as DNA insertion at 3 mg by 1H NMR method.
The test system of assay [22] is Clupeidae. Kind of assay: Binding affinity to herring sperm DNA assessed as Stern-Volmer quenching constant at 310 K by fluorescence spectroscopic method.
Assay [23] concerns Clupeidae. Put plainly: Inhibition of ethidium bromide binding to herring sperm DNA assessed as quenching constant at 303 K after 30 mins by fluorescence spectroscopic assay.
For assay [24], the system named is Clupeidae. Kind of assay: Binding affinity to herring sperm DNA assessed as negative peak at 16 to 48 uM up to 30 mins by circular dichroism method (reference value: 210 nanometer).
In assay [25] the test system is Clupeidae. Kind of assay: Inhibition of ethidium bromide binding to herring sperm DNA at 310 K after 30 mins by fluorescence spectroscopic assay.
For assay [26], the system named is Clupeidae. Kind of assay: Binding affinity to herring sperm DNA at 40 uM after 30 mins in presence of Na+ by fluorescence quenching method.
Assay [27] concerns Clupeidae. Kind of assay: Binding affinity to herring sperm DNA assessed as Stern-Volmer quenching constant at 298 K by fluorescence spectroscopic method.
The test system of assay [28] is Clupeidae. Put plainly: Binding affinity to herring sperm DNA assessed as positive peak at 16 to 48 uM up to 30 mins by circular dichroism method (reference value: 280 nanometer).
Assay [29] has as its system Clupeidae. Put plainly: Binding affinity to herring sperm DNA assessed as quenching constant at 303 K by fluorescence spectroscopic method.
For assay [30], the system named is Clupeidae. Kind of assay: Binding affinity to herring sperm DNA groove assessed as up-field shift at 3 mg by 1H NMR method.
For assay [31], the system named is Clupeidae. Kind of assay: Binding affinity to herring sperm DNA assessed as quenching constant at 310 K by fluorescence spectroscopic method.
Assay [32] relates to Clupeidae. Put plainly: Binding affinity to herring sperm DNA at 303 K by fluorescence spectroscopic method.

The structures appear in SMILES notation. Calls of active or inactive are those of the source. The calls are words filed in the database; no cut-off is given here.

For the compound `NCCCNCCCCNCCCN1C(=O)c2cccc3cccc(c23)C1=O`, the values for the Activity in the assay on Clupeidae [1], in the assay on Clupeidae [2] and with Clupeidae [3] were 68.5%, 77.2% and 40%, respectively.

With `NCCCCNCCCN`, the Kapp in the assay with Clupeidae [4] worked out at 1.47 ×10⁵ L/mol.

Regarding `NCCCNCCCCNCCCN1C(=O)c2ccc3c4c(ccc(c24)C1=O)C(=O)N(CCCNCCCCNCCCN)C3=O`, the KSV with Clupeidae [5] came to 5.63 ×10³ L/mol; in the assay on Clupeidae [7], 1.28 ×10⁵ L/mol; with Clupeidae [9] it was 1.45 ×10⁵ L/mol; with Clupeidae [18], 18.1 L/mol; in the assay on Clupeidae [20], 1.18 ×10⁵ L/mol; in the assay on Clupeidae [22], 4.63 ×10³ L/mol. For the same compound, the KSV in the assay on Clupeidae [27] was 5.32 ×10³ L/mol. The result in the assay with Clupeidae [6], in the assay with Clupeidae [12], in the assay with Clupeidae [14], in the assay on Clupeidae [16], in the assay on Clupeidae [21] and in the assay with Clupeidae [26] was Active. Also, the outcome with Clupeidae [30] was Active. Further, the Kb in the assay with Clupeidae [8] is 1.25 ×10⁵ L/mol; with Clupeidae [10], 1.38 ×10⁴ L/mol; with Clupeidae [13], 1.23 ×10⁵ L/mol; in the assay with Clupeidae [17], 1.7 ×10⁴ L/mol; in the assay with Clupeidae [25], 1.21 ×10⁵ L/mol; in the assay on Clupeidae [32] it was 1.25 ×10⁴ L/mol. Further, the Kq was found to be 1.45 ×10¹³ L/mol with Clupeidae [11]; 1.18 ×10¹³ L/mol in the assay on Clupeidae [15]; 5.32 ×10¹¹ L/mol in the assay with Clupeidae [19]; 1.28 ×10¹³ L/mol in the assay on Clupeidae [23]; 5.63 ×10¹¹ L/mol with Clupeidae [29]; 4.63 ×10¹¹ L/mol in the assay on Clupeidae [31]. Also, the Activity in the assay with Clupeidae [1] was 91%; in the assay on Clupeidae [24] it was 245 nm; with Clupeidae [2], 87.8%; in the assay with Clupeidae [28], 280 nm; in the assay on Clupeidae [3], 60.7%. Moreover, the Kapp with Clupeidae [4] was 1.55 ×10³ L/mol.
